Test: Inhibition of MCP1-induced chemotaxis in U937 cells overexpressing CCR2

Structure (SMILES)	IC50
Nc1cccc(CN2CC[C@H](Nc3cccc4cnccc34)C2)c1 [(3S)-N-[1-(3-aminobenzyl)-3-pyrrolidyl]-N-(5-isoquinolyl)amine]	30 µM
Clc1ccccc1CN1CCC(Nc2cccc3cnccc23)C1 (stereo unspecified) [N-[1-(2-chlorobenzyl)-3-pyrrolidyl]-N-(5-isoquinolyl)amine]	17 µM
Fc1ccc(CN2CCC(Nc3cccc4cnccc34)C2)cc1 (stereo unspecified) [N-[1-(4-fluorobenzyl)-3-pyrrolidyl]-N-(5-isoquinolyl)amine]	22 µM
Nc1cccc(CN2CC[C@@H](Nc3cccc4cnccc34)C2)c1 [(3R)-N-[1-(3-aminobenzyl)-3-pyrrolidyl]-N-(5-isoquinolyl)amine]	1 µM
Clc1ccc(CN2CCCC(Nc3cccc4cnccc34)C2)cc1 (stereo unspecified) [N-(1-(4-chlorobenzyl)piperidin-3-yl)isoquinolin-5-amine]	23 µM
Nc1ccccc1CN1CCC(Nc2cccc3cnccc23)C1 (stereo unspecified) [N-[1-(2-aminobenzyl)-3-pyrrolidyl]-N-(5-isoquinolyl)amine]	14 µM

The remaining lines, values ahead:

IC50	Structure (SMILES)
11 µM	Clc1ccc(CN2CCC(Nc3cccc4cnccc34)C2)cc1 (stereo unspecified) [N-(1-(4-chlorobenzyl)pyrrolidin-3-yl)isoquinolin-5-amine]
20 µM	Nc1cccc(CN2CCC(Nc3cccc4cnccc34)C2)c1 (stereo unspecified) [N-(1-(3-aminobenzyl)pyrrolidin-3-yl)isoquinolin-5-amine]
14 µM	Clc1cccc(CN2CCC(Nc3cccc4cnccc34)C2)c1 (stereo unspecified) [N-(1-(3-chlorobenzyl)pyrrolidin-3-yl)isoquinolin-5-amine]
15 µM	Nc1ccc(CN2CCC(Nc3cccc4cnccc34)C2)cc1 (stereo unspecified) [N-(1-(4-aminobenzyl)pyrrolidin-3-yl)isoquinolin-5-amine]
10 µM	Fc1cccc(F)c1CN1CCC(Nc2cccc3cnccc23)C1 (stereo unspecified) [N-(1-(2,6-difluorobenzyl)pyrrolidin-3-yl)isoquinolin-5-amine]

— BindingDB's records for doi:10.1016/j.bmc.2006.10.028 (Kirin Brewery, 2006)
